In patent publication US20060135458A1, “Antiviral oligonucleotides” (priority 2002, published 2006):
In the oligonucleotide strings, read from the 5' end, every base follows the letter of its sugar. An asterisk marks phosphorothioate; unmarked linkages are phosphodiester. Other units and linkages are bracketed, terminal groups are in braces. A string of capitals states the bases alone. d = 2'-deoxy (DNA)

Columns and labels:
[1] = test system: RSV (strain A2) lysate; assay: Fluorescence polarization binding to RSV lysate; settings: FITC-labelled ON
[2] = test system: HSV-1 (strain MacIntyre) lysate; assay: Fluorescence polarization binding to HSV-1 lysate; settings: FITC-labelled ON
[3] = test system: HIV-1 (strain Mn) lysate; assay: Fluorescence polarization binding to HIV-1 lysate; settings: FITC-labelled ON
[4] = test system: HSV-1 (strain KOS); assay: HSV-1 plaque reduction assay (PRA) in VERO cells; assay type: cell-based; settings: for IC50: VERO cells, HSV-1 strain KOS, linear regressions, read-out: IC50 (anti-HSV-1)
Protocol: The ability of PS-ONs to inhibit HSV-1 is measured in a plaque reduction assay (PRA). […] Upon reaching confluency, the media is changed to contain only 5% serum plus supplements as described above and cells are then exposed to HSV-1 (strain KOS, approximately 40-60 PFU total) in the presence of the test compound for 90 minutes. After viral exposure, the media is replaced with new “overlay” media containing 5% serum, 1% human immunoglobulins, supplements as described above and the test compound. Plaque counting is performed 3-4 days post infection following formalin fixation and cresyl violet staining of infected cultures.
(§1) Viral adsorbtion proceeds for 90 minutes, after which cells are washed and replaced with new “overlay” media containing 5% fetal calf serum and 1% human immunoglobins. Three to four days after adsorbtion, cells are fixed by formalin and plaques are counted following formalin fixation and cresyl violet staining.
Upon reaching confluency, the media is changed to contain only 5% serum plus supplements as described above and cells are then exposed to HSV-1 (strain KOS, approximately 40-60 PFU total) in the presence of the test compound for 90 minutes. After viral exposure, the media is replaced with new “overlay” media containing 5% serum, 1% human immunoglobulins, supplements as described above and the test compound. Plaque counting is performed 3-4 days post infection following formalin fixation and cresyl violet staining of infected cultures.

[5] = test system: HSV-2 (strain MS2); assay: HSV-2 plaque reduction assay (PRA); assay type: cell-based
Protocol: The ability of PS-ONs to inhibit HSV-2 is measured by PRA. […] Upon reaching confluency, the media is changed to contain only 5% serum plus supplements as described above and cells are then exposed to HSV-2 (strain MS2, approximately 40-60 PFU total) in the presence of the test compound for 90 minutes. After viral exposure, the media is replaced with new “overlay” media containing 5% serum, 1% human immunoglobulins, supplements as described above and the test compound. Plaque counting is performed 3-4 days post infection following formalin fixation and cresyl violet staining of infected cultures.
as §1

[6] = test system: Influenza A/HK/68 (H3N2); design: species or system Balb/c mice; settings: mouse, in vivo, ip, 180 mg/kg
[7] = biological target: Exonuclease I (Escherichia coli, UniProt P04995); design: key to the marks not given beside the values; settings: after 4 h at 37° C.
Chain of Exonuclease I (P04995 whole entry): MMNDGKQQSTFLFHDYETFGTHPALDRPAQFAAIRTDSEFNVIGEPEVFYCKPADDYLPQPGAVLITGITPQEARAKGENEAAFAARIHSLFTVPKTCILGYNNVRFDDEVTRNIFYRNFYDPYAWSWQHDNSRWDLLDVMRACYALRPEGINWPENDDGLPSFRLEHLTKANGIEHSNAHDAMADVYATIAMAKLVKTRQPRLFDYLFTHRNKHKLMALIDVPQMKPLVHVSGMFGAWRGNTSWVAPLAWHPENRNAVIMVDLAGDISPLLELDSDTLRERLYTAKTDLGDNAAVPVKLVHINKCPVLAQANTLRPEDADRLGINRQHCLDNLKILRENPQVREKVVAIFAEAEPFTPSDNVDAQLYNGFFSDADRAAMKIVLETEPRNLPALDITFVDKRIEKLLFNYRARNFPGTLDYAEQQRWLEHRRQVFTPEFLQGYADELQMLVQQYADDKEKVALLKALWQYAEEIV

[8] = design: Acid stability, pH 5 / Acid stability, pH 7: key to the marks not given beside the values
[9] = test system: Phosphodiesterase II; settings: after 4 h at 37° C.
[10] = biological target: S1 Nuclease (Aspergillus oryzae, UniProt P24021); settings: after 4 h at 37° C.
Chain of S1 Nuclease (P24021 21-287): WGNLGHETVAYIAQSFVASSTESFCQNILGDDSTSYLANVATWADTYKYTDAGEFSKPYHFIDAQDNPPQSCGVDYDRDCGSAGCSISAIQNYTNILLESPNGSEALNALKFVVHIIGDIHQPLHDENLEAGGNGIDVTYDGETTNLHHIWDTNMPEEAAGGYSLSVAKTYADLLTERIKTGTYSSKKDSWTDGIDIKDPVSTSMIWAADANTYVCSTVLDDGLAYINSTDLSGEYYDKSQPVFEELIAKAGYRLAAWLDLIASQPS

For T20: 20-mer PS-ON, polyT, the “binding to RSV lysate (fluorescence polarization, mP)” value (“binding to RSV lysate” for short) [1] was “the weakest interactors”, the “binding to HSV-1 lysate (fluorescence polarization, mP)” value (from here on “binding to HSV-1 lysate”) [2] was “the weakest interactors” and the “binding to HIV-1 lysate (fluorescence polarization, mP)” value (shortened to “binding to HIV-1 lysate”) [3] was “the weakest interactors”.

For “REP 2001: PS-ON directed against the origin of replication in HSV (DNA dG*dA*dA*dG*dC*dG*dT*dT*dC*dG*dC*dA*dC*dT*dT*dC*dG*dT*dC*dC*dC*dA)”, the IC50 [4] was 770 nM and the anti-HSV-2 activity [5] was “showed anti-HSV-2 activity”.

For “REP 2017: random sequence 20-mer PS-ON (DNA dA*dC*dA*dC*dC*dT*dC*dC*dG*dA*dA*dG*dA*dC*dG*dA*dT*dA*dA*dC)”, the “binding to HSV-1 lysate” value [2] was “capable of HSV-1 and HIV-1 interaction” and the “binding to HIV-1 lysate” value [3] was “capable of HSV-1 and HIV-1 interaction”.

With TG10: 20-mer PS-ON, TG repeat the “binding to RSV lysate” value [1] was “the strongest interaction”, the “binding to HSV-1 lysate” value [2] was “the strongest interaction” and the “binding to HIV-1 lysate” value [3] was “the strongest interaction”.

In the case of “REP 3007: PS-ON directed against a plasmid (pBR322/pUC) replication origin (DNA dC*dT*dT*dG*dC*dG*dG*dT*dA*dT*dT*dC*dG*dG*dA*dA)”, the IC50 [4] is reported as 5330 nM and the anti-HSV-2 activity [5] is reported as “showed anti-HSV-2 activity”.

For `NC(=O)c1ncn([C@@H]2O[C@H](CO)[C@@H](O)[C@H]2O)n1` [Ribavirin], the “Viral titer (log10/g lung) Mean” value [6] was 3.3 log10/g lung.

In the case of “REP 2029: A40 (polyA) PS-ON (DNA dA*dA*dA*dA*dA*dA*dA*dA*dA*dA*dA*dA*dA*dA*dA*dA*dA*dA*dA*dA*dA*dA*dA*dA*dA*dA*dA*dA*dA*dA*dA*dA*dA*dA*dA*dA*dA*dA*dA*dA)”, the “Nuclease resistance, Exo 1” value [7] is reported as “++++”, the “relative anti-HSV-1 efficacy by sequence composition” value ([4]; PS-ONs of equivalent size, HSV-1 PRA) is reported as “the least active” and the “Acid stability, pH 1” value ([8]; pH 1, 24 h at 37° C.) is reported as “−”. For the same compound, the “Acid stability, pH 2” value ([8]; pH 2, 24 h at 37° C.) was “−”, the “Acid stability, pH 2.5” value ([8]; pH 2.5, 24 h at 37° C.) was “−” and the “Acid stability, pH 3” value ([8]; pH 3, 24 h at 37° C.) was “−”. For the same compound, the “Acid stability, pH 4” value ([8]; pH 4, 24 h at 37° C.) was “++ (++ = less than 5-% degradation)”, the “Acid stability, pH 5” value ([8]; pH 5, 24 h at 37° C.) was “+++” and the “Acid stability, pH 7” value ([8]; pH 7, 24 h at 37° C.) was “+++”. For the same compound, the “Nuclease resistance, PII” value [9] was “−” and the “Nuclease resistance, S1” value [10] was “−”.

In the case of “A20: 20-mer PS-ON, polyA, 3′ FITC labelled in the binding test”, the “binding to RSV lysate” value [1] is reported as “the weakest interactor of these by a significant margin”, the “binding to HSV-1 lysate” value [2] is reported as “the weakest interactor of these by a significant margin” and the “binding to HIV-1 lysate” value [3] is reported as “the weakest interactor of these by a significant margin”.

With “REP 1001: PS-ON directed against a replication origin in humans (343 ARS) (DNA dT*dT*dG*dA*dT*dA*dA*dA*dT*dA*dG*dT*dA*dC*dT*dA*dG*dG*dA*dC)” the IC50 [4] was 2760 nM and the anti-HSV-2 activity [5] was “showed anti-HSV-2 activity”.
